Results reported in patent publication US8883963B2 (Cadila Healthcare Limited, priority 2007, dated 2014).
Starred links: 1 amine or outer side, 2 acyl side, 3 side chain; linkers in the order of their positions; H or OH if unused. Non-standard residues stand in square brackets, D forms with d. Residues, ends and D or L forms follow the SMILES beside them. ξ: configuration not given here. *: point of attachment. X9 = CCc1cc(OC)ccc1-c1ccc(CC(NC(=S)[C@H](CC(=O)O)N*)C(=S)NC(CCCc2ccccc2F)C(N)=O)cc1; ξBip(2'-Et-4'-OMe) = CCc1cc(OC)ccc1-c1ccc(CC(N)C(=O)O)cc1; X6 = O=C(C(CCCc1ccc(Cl)cc1Cl)N[*:1])[*:2]; X10 = O=C(C(CCCc1ccc(F)cc1F)N[*:1])[*:2]; ξbishPhe(2-F) = NC(CCCc1ccccc1F)C(=O)O; ξαMePhe(2-F) = CC(N)(Cc1ccccc1F)C(=O)O; aThr = C[C@H](O)[C@H](N)C(=O)O; ξhhPhe = NC(CCCc1ccccc1)C(=O)O; ξAbu(4-CN) = N#CCCC(N)C(=O)O; Ac5c = NC1(C(=O)O)CCCC1; Aib = CC(C)(N)C(=O)O

Tested on: RIN5F (Rat Insulinoma) cells
Assay: In vitro glucose-dependent insulin secretion (RIN5F cell assay screening protocol)
Type: cell-based
Details: 16.7 mM glucose load
Protocol: RIN5F (Rat Insulinoma) cells were cultured in RPMI 1640 medium supplemented with sodium pyruvate (1 mM) HEPES and Glucose (4.5 g/L) in a humidified incubator (5% CO2), at 37° C. After trypsinization, RIN5F cells were seeded at a concentration of 0.2×10^6 cells per well, in 12 well plates.
The buffer was replaced after 40 min. and the cells were incubated (37° C.) with the test peptidomimetics, at different concentration, for 30 min., both in the presence (16.7 mM) and absence (0 mM) of glucose load. The supernatant was collected and the insulin amount was measured by ultra sensitive Rat insulin ELISA kit (Crystal Chem, IL). The protein was estimated in the supernatant using Bicinchoninic Acid kit, according to the manufacturer's protocol (Sigma Aldrich, MO). The total insulin content obtained in Pico-gram (pg) was divided with the total protein (μg) in order to normalize for differences in cell density between wells.

SMILES | Insulin secretion (0.1 nM test compd.) | Insulin secretion (1 nM test compd.) | Insulin secretion (10 nM test compd.)
CCc1cc(OC)ccc1-c1ccc(CC(NC(=O)[C@H](CC(=O)O)NC(=O)[C@H](CO)NC(=O)[C@@H](NC(=O)C(C)(Cc2ccccc2F)NC(=O)[C@@H](NC(=O)CNC(=O)[C@H](CCC(N)=O)NC(=O)C(C)(C)NC(=O)[C@@H](N)Cc2c[nH]cn2)[C@H](C)O)[C@H](C)O)C(=O)NC(CCCc2ccccc2)C(N)=O)cc1 (stereo partly drawn) [compound 113] (H-H[Aib]QG[aThr][ξαMePhe(2-F)][aThr]SD[ξBip(2'-Et-4'-OMe)][ξhhPhe]-NH2) | 15.6 ± 0.31 pg/µg/h | 21.8 ± 0.16 pg/µg/h | 35.6 ± 0.28 pg/µg/h
CCc1cc(OC)ccc1-c1ccc(CC(NC(=O)[C@H](CC(=O)O)NC(=O)[C@H](CO)NC(=O)[C@@H](NC(=O)[C@H](Cc2ccccc2)NC(=O)[C@@H](NC(=O)CNC(=O)[C@H](CCC(N)=O)NC(=O)C2(NC(=O)[C@@H](N)Cc3c[nH]cn3)CCCC2)[C@@H](C)O)[C@@H](C)O)C(=O)NC(CCCc2ccccc2)C(N)=O)cc1 (stereo partly drawn) [compound 25] (H-H[Ac5c]QGTFTSD[ξBip(2'-Et-4'-OMe)][ξhhPhe]-NH2) | 15.6 ± 0.30 pg/µg/h | 21.8 ± 0.11 pg/µg/h | 35.6 ± 0.20 pg/µg/h
CCc1cc(OC)ccc1-c1ccc(CC(NC(=O)[C@H](CC(=O)O)NC(=O)[C@H](CO)NC(=O)[C@@H](NC(=O)C(C)(Cc2ccccc2F)NC(=O)[C@@H](NC(=O)CNC(=O)[C@H](CCC(N)=O)NC(=O)C(C)(C)NC(=O)[C@@H](N)Cc2c[nH]cn2)[C@H](C)O)[C@@H](C)O)C(=O)NC(CCCc2ccccc2F)C(N)=O)cc1 (stereo partly drawn) [compound 111] (H-H[Aib]QG[aThr][ξαMePhe(2-F)]TSD[ξBip(2'-Et-4'-OMe)][ξbishPhe(2-F)]-NH2) | 16.2 ± 0.20 pg/µg/h | 22.2 ± 0.20 pg/µg/h | 36.1 ± 0.31 pg/µg/h
CCc1cc(OC)ccc1-c1ccc(CC(NC(=O)[C@H](CC(=O)O)NC(=O)[C@H](CO)NC(=O)[C@@H](NC(=O)C(C)(Cc2ccccc2F)NC(=O)[C@@H](NC(=O)CNC(=O)[C@H](CC(C(F)(F)F)C(F)(F)F)NC(=O)C(C)(C)NC(=O)[C@@H](N)Cc2c[nH]cn2)[C@@H](C)O)[C@@H](C)O)C(=O)NC(CCCc2cc(C)cc(C)c2)C(N)=O)cc1 (single isomer, unassigned) [compound 235] | 12.6 ± 0.25 pg/µg/h | 15.3 ± 0.31 pg/µg/h | 29.7 ± 0.48 pg/µg/h
CCc1cc(OC)ccc1-c1ccc(CC(NC(=O)[C@H](CC(=O)O)NC(=O)[C@H](CO)NC(=O)[C@@H](NC(=O)[C@H](Cc2ccccc2)NC(=O)[C@@H](NC(=O)CNC(=O)C(CCC#N)NC(=O)C(C)(C)NC(=O)[C@@H](N)Cc2c[nH]cn2)[C@@H](C)O)[C@@H](C)O)C(=O)NC(CCCc2ccc(Cl)cc2Cl)C(N)=O)cc1 (stereo partly drawn) [compound 83] (H-H[Aib][ξAbu(4-CN)]GTFTSD[ξBip(2'-Et-4'-OMe)][X6]-NH2) | 12.3 ± 0.33 pg/µg/h | 14.1 ± 0.36 pg/µg/h | 28.0 ± 0.16 pg/µg/h
CCc1cc(OC)ccc1-c1ccc(CC(NC(=O)[C@H](CC(=O)O)NC(=O)[C@H](CO)NC(=O)[C@@H](NC(=O)C(C)(Cc2ccccc2F)NC(=O)[C@@H](NC(=O)CNC(=O)[C@H](CCC(N)=O)NC(=O)C(C)(C)NC(=O)[C@@H](N)Cc2c[nH]cn2)[C@@H](C)O)[C@@H](C)O)C(=O)NC(CCCc2ccc(F)cc2F)C(N)=O)cc1 (stereo partly drawn) [compound 86] (H-H[Aib]QGT[ξαMePhe(2-F)]TSD[ξBip(2'-Et-4'-OMe)][X10]-NH2) | 12.3 ± 0.33 pg/µg/h | 14.8 ± 0.16 pg/µg/h | 28.1 ± 0.22 pg/µg/h
CCc1cc(OC)ccc1-c1ccc(CC(NC(=O)[C@H](CC(=O)O)NC(=O)[C@H](CO)NC(=O)[C@@H](NC(=O)C(C)(Cc2ccccc2F)NC(=O)[C@@H](NC(=O)CNC(=O)[C@H](CCC(N)=O)NC(=O)C(C)(C)NC(=O)[C@@H](N)Cc2c[nH]cn2)[C@@H](C)O)[C@@H](C)O)C(=O)NC(CCCc2ccccc2F)C(N)=O)cc1 (stereo partly drawn) [compound 85] (H-H[Aib]QGT[ξαMePhe(2-F)]TSD[ξBip(2'-Et-4'-OMe)][ξbishPhe(2-F)]-NH2) | 11.9 ± 0.17 pg/µg/h | 14.2 ± 0.13 pg/µg/h | 27.6 ± 0.16 pg/µg/h
CCc1cc(OC)ccc1-c1ccc(CC(NC(=O)[C@H](CC(=O)O)NC(=O)[C@H](CO)NC(=O)[C@@H](NC(=O)C(C)(Cc2ccccc2F)NC(=O)[C@@H](NC(=O)CNC(=O)[C@H](CCC(N)=O)NC(=O)C(C)(C)NC(=O)[C@@H](N)Cc2c[nH]cn2)[C@@H](C)O)[C@@H](C)O)C(=O)NC(CCCc2cccc(Cl)c2)C(N)=O)cc1 (single isomer, unassigned) [compound 39] | 11.1 ± 0.12 pg/µg/h | 13.1 ± 0.13 pg/µg/h | 19.0 ± 0.16 pg/µg/h
CCc1cc(OC)ccc1-c1ccc(CC(NC(=O)[C@H](CC(=O)O)NC(=O)[C@H](CO)NC(=O)[C@@H](NC(=O)C(C)(Cc2ccccc2F)NC(=O)[C@@H](NC(=O)CNC(=O)[C@H](CCC(N)=O)NC(=O)C(C)(C)NC(=O)[C@H](Cc2c[nH]cn2)NC(C)=O)[C@H](C)O)[C@H](C)O)C(=O)NC(CCCc2ccccc2F)C(N)=O)cc1 (single isomer, unassigned) [compound 103] | 12.1 ± 0.51 pg/µg/h | 14.1 ± 0.19 pg/µg/h | 28.1 ± 0.29 pg/µg/h
CCc1cc(OC)ccc1-c1ccc(CC(NC(=O)[C@H](CC(=O)O)NC(=O)[C@H](CO)NC(=O)[C@@H](NC(=O)C(C)(Cc2ccccc2F)NC(=O)[C@@H](NC(=O)CNC(=O)[C@H](CCC(N)=O)NC(=O)C(C)(C)NC(=O)[C@H](Cc2c[nH]cn2)NC(C)=O)[C@H](C)O)[C@H](C)O)C(=O)NC(CCCc2ccccc2)C(N)=O)cc1 (single isomer, unassigned) [compound 101] | 12.4 ± 0.22 pg/µg/h | 15.2 ± 0.32 pg/µg/h | 29.6 ± 0.50 pg/µg/h
CCc1cc(OC)ccc1-c1ccc(CC(NC(=O)[C@H](CC(=O)O)NC(=O)[C@H](CO)NC(=O)[C@@H](NC(=O)[C@H](Cc2ccccc2)NC(=O)[C@@H](NC(=O)CNC(=O)[C@H](CCC(N)=O)NC(=O)[C@H](CO)NC(=O)[C@@H](N)Cc2c[nH]cn2)[C@@H](C)O)[C@@H](C)O)C(=O)NC(CCCc2ccc(F)cc2C(F)(F)F)C(N)=O)cc1 (single isomer, unassigned) [compound 48] | 12.9 ± 0.14 pg/µg/h | 15.8 ± 0.13 pg/µg/h | 29.9 ± 0.15 pg/µg/h
CCc1cc(OC)ccc1-c1ccc(CC(NC(=O)[C@H](CC(=O)O)NC(=O)[C@H](CO)NC(=O)[C@@H](NC(=O)C(C)(Cc2ccccc2F)NC(=O)[C@@H](NC(=O)CNC(=O)[C@H](CCC(N)=O)NC(=O)C(C)(C)NC(=O)[C@@H](N)Cc2c[nH]cn2)[C@H](C)O)[C@@H](C)O)C(=O)NC(CCCc2ccccc2)C(N)=O)cc1 (stereo partly drawn) [compound 109] (H-H[Aib]QG[aThr][ξαMePhe(2-F)]TSD[ξBip(2'-Et-4'-OMe)][ξhhPhe]-NH2) | 12.6 ± 0.25 pg/µg/h | 15.3 ± 0.31 pg/µg/h | 29.7 ± 0.48 pg/µg/h
CCc1cc(OC)ccc1-c1ccc(CC(NC(=S)[C@H](CC(=O)O)NC(=O)[C@H](CO)NC(=O)[C@@H](NC(=O)C(C)(Cc2ccccc2F)NC(=O)[C@@H](NC(=O)CNC(=O)[C@H](CCC(N)=O)NC(=O)C(C)(C)NC(=O)[C@H](Cc2c[nH]cn2)NC(C)=O)[C@H](C)O)[C@H](C)O)C(=S)NC(CCCc2ccccc2F)C(N)=O)cc1 (stereo partly drawn) [compound 175] (Ac-H[Aib]QG[aThr][ξαMePhe(2-F)][aThr]S-X9) | 15.6 ± 0.33 pg/µg/h | 21.8 ± 0.16 pg/µg/h | 35.6 ± 0.26 pg/µg/h
